Experimental data taken from patent US11116765B2 (GRIFOLS, S.A., priority 2014, dated 2021).
Where two headings read alike, the source gives them in different places.

Key:
[1] = tested on: M. avium; details: incubation of M. avium with antibiotic; cited from earlier work
[2] = tested on: Mycobacterium avium subsp hominissuis (MAH) MAC104 strain; test: MAH lung infection in C57BL/6 mice, intranasal treatment; assay type: in vivo; details: 3 weeks
[3] = tested on: M. avium 104; details: 100 mcg/mL
[4] = tested on: M. abscessus 105; details: 100 mcg/mL
[5] = tested on: M. avium 104; details: THP-1 human macrophages, 20 mcg/mL
[6] = tested on: M. avium 104; details: THP-1 human macrophages, 200 mcg/mL

SMILES | effect on M. avium biofilm formation [1] | effect on the growth of MAH in the lungs of mice compared with saline control [2] | Biofilm Colonization, Time: 4 Days [3] | Biofilm Colonization, Time: 4 Days [4] | Colonization in macrophages, Time: 4 days [5] | Colonization in macrophages, Time: 4 days [6]
CC1(C)S[C@@H]2[C@H](NC(=O)[C@H](N)c3ccccc3)C(=O)N2[C@H]1C(=O)O [ampicillin] | no effect on biofilm | – | – | – | – | –
[H]/N=C(/N)N[C@H]1[C@H](O)[C@@H](O)[C@H](O[C@@H]2O[C@@H](C)[C@](O)(C=O)[C@H]2O[C@@H]2O[C@@H](CO)[C@H](O)[C@@H](O)[C@@H]2NC)[C@@H](N/C(N)=N\[H])[C@@H]1O [streptomycin] | increase | – | – | – | – | –
O=C(O)c1cn(C2CC2)c2cc(N3CCNCC3)c(F)cc2c1=O [Ciprofloxacin, ciprofloxacin] | – | no significant effect | 4.0 ± 0.3 × 10^7 | 3.0 ± 0.5 × 10^7 | 1.1 ± 0.4 × 10^4 | 5.0 ± 0.3 × 10^4
